{
  "source": "paper PMC7180948",
  "about": "“New Insights into 4-Anilinoquinazolines as Inhibitors of Cardiac Troponin I–Interacting Kinase (TNNi3K)” (Molecules, 2020)",
  "experiment_in_all_cases": "biochemical",
  "design_in_all_cases": "KINOMEscan competition binding panel (Eurofins DiscoverX), single concentration, percent inhibition",
  "details_in_all_cases": "read-out: 15 at 1 µM % inhibition",
  "key": {"[1]": {"target": "BRAF (Homo sapiens, UniProt P15056)", "procedure,_shortened": "(§1)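 A single 1 µM concentration of each compound is screened across upwards of 400 human kinases using the KINOMEscan format.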"}, "[2]": {"target": "CAMK2A (Homo sapiens, UniProt Q9UQM7)", "sequence (Q9UQM7 whole entry)": "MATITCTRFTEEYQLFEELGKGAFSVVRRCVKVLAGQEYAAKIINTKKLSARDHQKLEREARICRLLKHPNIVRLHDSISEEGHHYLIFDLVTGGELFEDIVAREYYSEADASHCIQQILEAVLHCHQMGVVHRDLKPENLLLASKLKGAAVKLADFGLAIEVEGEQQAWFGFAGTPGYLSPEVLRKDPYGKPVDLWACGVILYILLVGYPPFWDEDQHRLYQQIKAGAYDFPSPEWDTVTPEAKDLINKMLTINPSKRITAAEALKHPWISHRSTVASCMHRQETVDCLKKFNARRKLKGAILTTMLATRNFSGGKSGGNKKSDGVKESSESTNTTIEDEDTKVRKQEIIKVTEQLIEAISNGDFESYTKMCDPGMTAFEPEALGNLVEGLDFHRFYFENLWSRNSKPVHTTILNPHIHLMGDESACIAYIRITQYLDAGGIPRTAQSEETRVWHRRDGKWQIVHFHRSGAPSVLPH", "procedure,_shortened": "as §1"}, "[3]": {"target": "CDK5 (Homo sapiens, UniProt Q00535)", "procedure,_shortened": "as §1"}, "[4]": {"target": "CDK8 (Homo sapiens, UniProt P49336)", "procedure,_shortened": "as §1"}, "[5]": {"target": "CSNK1A1L (Homo sapiens, UniProt Q8N752)", "procedure,_shortened": "as §1"}, "[6]": {"target": "CSNK1E (Homo sapiens, UniProt P49674)", "sequence (P49674 whole entry)": "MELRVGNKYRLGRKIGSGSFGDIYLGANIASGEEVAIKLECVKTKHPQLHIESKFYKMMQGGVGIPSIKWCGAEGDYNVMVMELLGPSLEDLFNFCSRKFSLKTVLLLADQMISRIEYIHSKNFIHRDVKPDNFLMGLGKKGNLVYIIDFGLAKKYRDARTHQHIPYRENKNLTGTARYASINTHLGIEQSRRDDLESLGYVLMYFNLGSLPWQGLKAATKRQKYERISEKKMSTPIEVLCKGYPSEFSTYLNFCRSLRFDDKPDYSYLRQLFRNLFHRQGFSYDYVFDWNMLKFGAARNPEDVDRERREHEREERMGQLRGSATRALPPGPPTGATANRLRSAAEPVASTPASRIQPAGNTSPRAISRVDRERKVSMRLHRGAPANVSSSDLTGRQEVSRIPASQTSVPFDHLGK", "procedure,_shortened": "as §1"}, "[7]": {"target": "T1, DCAMKL3 (Homo sapiens, UniProt Q9C098)", "T1 construct": "gene DCLK3", "procedure,_shortened": "as §1"}, "[8]": {"target": "FLT3(D835V) (Homo sapiens, UniProt P36888, D835V)", "procedure,_shortened": "as §1"}, "[9]": {"target": "FLT4 (Homo sapiens, UniProt P35916)", "sequence (P35916 whole entry)": "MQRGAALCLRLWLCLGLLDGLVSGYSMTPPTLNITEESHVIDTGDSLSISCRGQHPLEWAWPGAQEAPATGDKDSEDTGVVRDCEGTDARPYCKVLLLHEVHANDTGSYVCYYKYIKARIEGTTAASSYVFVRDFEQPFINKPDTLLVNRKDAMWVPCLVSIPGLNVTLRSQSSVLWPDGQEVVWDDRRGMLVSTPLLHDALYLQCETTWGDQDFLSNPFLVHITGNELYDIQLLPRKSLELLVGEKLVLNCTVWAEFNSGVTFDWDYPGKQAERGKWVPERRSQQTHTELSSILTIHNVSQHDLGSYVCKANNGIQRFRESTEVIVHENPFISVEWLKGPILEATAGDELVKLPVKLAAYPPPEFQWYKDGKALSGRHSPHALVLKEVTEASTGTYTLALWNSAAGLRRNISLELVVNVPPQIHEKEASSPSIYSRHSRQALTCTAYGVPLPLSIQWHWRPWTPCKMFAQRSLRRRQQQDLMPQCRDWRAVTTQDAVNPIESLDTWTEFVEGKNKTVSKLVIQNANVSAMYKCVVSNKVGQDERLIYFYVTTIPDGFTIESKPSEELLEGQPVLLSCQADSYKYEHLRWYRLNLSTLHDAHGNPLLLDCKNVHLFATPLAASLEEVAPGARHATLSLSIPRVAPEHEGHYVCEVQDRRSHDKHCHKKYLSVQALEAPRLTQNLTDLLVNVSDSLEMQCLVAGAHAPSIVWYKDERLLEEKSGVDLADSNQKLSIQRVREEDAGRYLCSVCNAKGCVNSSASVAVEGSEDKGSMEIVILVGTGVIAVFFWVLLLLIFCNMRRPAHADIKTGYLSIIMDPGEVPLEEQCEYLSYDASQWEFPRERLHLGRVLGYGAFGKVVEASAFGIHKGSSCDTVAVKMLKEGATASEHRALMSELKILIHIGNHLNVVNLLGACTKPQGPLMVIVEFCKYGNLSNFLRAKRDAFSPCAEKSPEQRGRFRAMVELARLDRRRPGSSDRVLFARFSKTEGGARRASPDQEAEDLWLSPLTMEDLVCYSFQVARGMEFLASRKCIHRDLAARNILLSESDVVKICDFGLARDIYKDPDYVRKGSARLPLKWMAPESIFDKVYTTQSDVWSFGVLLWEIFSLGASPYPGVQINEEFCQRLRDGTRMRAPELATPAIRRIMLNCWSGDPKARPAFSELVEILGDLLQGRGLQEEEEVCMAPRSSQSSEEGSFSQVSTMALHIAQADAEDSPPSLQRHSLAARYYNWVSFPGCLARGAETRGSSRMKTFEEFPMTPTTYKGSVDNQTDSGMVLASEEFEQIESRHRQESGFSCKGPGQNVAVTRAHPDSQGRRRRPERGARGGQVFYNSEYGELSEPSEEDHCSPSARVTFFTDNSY", "procedure,_shortened": "as §1"}, "[10]": {"target": "T2, GCN2(Kin.Dom.2,S808G) (Homo sapiens, UniProt Q9P2K8, S808G)", "T2 construct": "gene EIF2AK4; Kin.Dom.2", "procedure,_shortened": "as §1"}, "[11]": {"target": "LATS2 (Homo sapiens, UniProt Q9NRM7)", "sequence (Q9NRM7 whole entry)": "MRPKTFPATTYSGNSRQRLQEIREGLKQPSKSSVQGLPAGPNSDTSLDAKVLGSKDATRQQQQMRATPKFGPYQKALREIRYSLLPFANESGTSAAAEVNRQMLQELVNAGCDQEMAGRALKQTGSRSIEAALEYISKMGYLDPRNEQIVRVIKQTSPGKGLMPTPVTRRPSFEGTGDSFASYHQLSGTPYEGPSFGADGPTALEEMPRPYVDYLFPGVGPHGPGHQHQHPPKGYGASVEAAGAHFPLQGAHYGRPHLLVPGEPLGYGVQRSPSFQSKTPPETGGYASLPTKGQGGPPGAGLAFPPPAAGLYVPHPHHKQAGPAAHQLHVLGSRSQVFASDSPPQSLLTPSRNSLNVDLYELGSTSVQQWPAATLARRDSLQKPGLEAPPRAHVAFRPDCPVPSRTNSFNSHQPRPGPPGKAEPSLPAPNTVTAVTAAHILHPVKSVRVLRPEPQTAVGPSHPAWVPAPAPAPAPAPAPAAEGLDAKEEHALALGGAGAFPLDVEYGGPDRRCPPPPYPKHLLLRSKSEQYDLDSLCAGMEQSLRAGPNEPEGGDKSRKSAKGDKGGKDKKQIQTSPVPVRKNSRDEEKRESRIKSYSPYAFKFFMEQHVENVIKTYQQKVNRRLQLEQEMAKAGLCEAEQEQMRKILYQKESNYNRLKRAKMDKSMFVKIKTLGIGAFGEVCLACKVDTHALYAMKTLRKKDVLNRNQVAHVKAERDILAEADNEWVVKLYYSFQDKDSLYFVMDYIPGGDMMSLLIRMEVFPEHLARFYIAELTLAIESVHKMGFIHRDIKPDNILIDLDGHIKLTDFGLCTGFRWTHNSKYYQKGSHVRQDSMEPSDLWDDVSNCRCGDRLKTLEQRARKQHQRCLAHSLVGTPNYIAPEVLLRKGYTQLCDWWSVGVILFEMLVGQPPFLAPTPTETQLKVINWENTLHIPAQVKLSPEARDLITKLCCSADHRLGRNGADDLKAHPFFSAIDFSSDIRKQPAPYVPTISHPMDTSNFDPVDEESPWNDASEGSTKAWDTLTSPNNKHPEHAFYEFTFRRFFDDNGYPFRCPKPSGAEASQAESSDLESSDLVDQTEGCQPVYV", "procedure,_shortened": "as §1"}, "[12]": {"target": "MAP4K2 (Homo sapiens, UniProt Q12851)", "procedure,_shortened": "as §1"}, "[13]": {"target": "MAP4K3 (Homo sapiens, UniProt Q8IVH8)", "procedure,_shortened": "as §1"}, "[14]": {"target": "MAPKAPK2 (Homo sapiens, UniProt P49137)", "procedure,_shortened": "as §1"}, "[15]": {"target": "T3, MLK2 (Homo sapiens, UniProt Q02779)", "T3 construct": "gene MAP3K10", "procedure,_shortened": "as §1"}, "[16]": {"target": "T4, MST2 (Homo sapiens, UniProt Q13188)", "T4 construct": "gene STK3", "procedure,_shortened": "as §1"}, "[17]": {"target": "NEK11 (Homo sapiens, UniProt Q8NG66)", "sequence (Q8NG66 whole entry)": "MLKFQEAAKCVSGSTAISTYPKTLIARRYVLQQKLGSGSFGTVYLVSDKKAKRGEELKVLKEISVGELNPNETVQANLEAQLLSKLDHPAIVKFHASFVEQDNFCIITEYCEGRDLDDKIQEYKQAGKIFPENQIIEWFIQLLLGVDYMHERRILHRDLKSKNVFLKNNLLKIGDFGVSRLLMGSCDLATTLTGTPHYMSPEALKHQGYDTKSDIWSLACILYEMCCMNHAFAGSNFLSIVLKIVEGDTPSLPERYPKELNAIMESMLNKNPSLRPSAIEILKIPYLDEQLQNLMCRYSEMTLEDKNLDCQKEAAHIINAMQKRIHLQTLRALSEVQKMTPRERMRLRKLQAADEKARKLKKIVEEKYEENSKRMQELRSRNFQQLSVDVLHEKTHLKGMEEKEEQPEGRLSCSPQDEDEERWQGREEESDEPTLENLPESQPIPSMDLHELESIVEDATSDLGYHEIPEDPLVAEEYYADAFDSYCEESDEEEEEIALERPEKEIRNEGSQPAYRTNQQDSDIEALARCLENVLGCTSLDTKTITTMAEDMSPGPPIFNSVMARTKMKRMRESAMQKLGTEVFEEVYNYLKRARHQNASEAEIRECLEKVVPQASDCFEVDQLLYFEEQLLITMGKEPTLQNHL", "procedure,_shortened": "as §1"}, "[18]": {"target": "T5, NIK (Homo sapiens, UniProt Q99558)", "T5 construct": "gene MAP3K14", "procedure,_shortened": "as §1"}, "[19]": {"target": "PIK3CA(M1043I) (Homo sapiens, UniProt P42336, M1043I)", "sequence (P42336 whole entry M1043I)": "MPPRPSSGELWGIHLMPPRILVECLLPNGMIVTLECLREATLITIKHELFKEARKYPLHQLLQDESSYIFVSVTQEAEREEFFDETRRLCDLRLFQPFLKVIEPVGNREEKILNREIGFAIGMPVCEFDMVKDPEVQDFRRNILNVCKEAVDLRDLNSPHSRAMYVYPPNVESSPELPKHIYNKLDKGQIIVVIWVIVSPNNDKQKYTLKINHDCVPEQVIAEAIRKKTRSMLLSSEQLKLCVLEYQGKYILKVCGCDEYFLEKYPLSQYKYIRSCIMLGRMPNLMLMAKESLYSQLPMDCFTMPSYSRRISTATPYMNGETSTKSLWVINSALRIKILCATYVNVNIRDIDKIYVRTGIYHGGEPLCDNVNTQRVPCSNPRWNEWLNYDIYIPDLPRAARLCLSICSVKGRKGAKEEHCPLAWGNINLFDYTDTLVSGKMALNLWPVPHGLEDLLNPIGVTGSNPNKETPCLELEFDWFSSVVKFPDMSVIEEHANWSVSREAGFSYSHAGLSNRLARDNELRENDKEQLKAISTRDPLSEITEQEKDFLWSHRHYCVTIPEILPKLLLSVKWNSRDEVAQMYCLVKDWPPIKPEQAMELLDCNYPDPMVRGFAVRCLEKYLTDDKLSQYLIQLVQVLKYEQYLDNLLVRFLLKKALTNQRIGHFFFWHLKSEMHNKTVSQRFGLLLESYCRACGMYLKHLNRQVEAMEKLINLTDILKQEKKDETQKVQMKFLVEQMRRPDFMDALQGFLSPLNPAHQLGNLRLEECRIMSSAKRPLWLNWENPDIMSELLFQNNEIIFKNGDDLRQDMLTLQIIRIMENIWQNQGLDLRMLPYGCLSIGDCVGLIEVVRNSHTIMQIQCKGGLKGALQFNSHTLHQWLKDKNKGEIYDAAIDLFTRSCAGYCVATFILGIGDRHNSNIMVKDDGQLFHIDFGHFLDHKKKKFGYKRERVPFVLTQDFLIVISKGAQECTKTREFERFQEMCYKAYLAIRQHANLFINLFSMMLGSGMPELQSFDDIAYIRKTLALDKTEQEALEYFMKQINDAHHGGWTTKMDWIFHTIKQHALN", "procedure,_shortened": "as §1"}, "[20]": {"target": "PKMYT1 (Homo sapiens, UniProt Q99640)", "procedure,_shortened": "as §1"}, "[21]": {"target": "PLK2 (Homo sapiens, UniProt Q9NYY3)", "procedure,_shortened": "as §1"}, "[22]": {"target": "T6, QSK (Homo sapiens, UniProt Q9Y2K2)", "T6 construct": "gene SIK3", "procedure,_shortened": "as §1"}, "[23]": {"target": "T7, SGK (Homo sapiens, UniProt O00141)", "T7 construct": "gene SGK1", "procedure,_shortened": "as §1"}, "[24]": {"target": "TGFBR2 (Homo sapiens, UniProt P37173)", "procedure,_shortened": "as §1"}},
  "data": [
    {"compound": "CNS(=O)(=O)c1ccc(N(C)C)c(Nc2nc(C)nc3cc(OC)c(OC)cc23)c1", "note": "[compound 15, 3-((6,7-dimethoxy-2-methylquinazolin-4-yl)amino)-4-(dimethylamino)-N-methylbenzenesulfonamide]", "values": [
      {"measurement": "inhibition at 1 µM", "setting": "[1]", "result": 20, "unit": "%"},
      {"measurement": "inhibition at 1 µM", "setting": "[2]", "result": 4, "unit": "%"},
      {"measurement": "inhibition at 1 µM", "setting": "[3]", "result": 3, "unit": "%"},
      {"measurement": "inhibition at 1 µM", "setting": "[4]", "result": 0, "unit": "%"},
      {"measurement": "inhibition at 1 µM", "setting": "[5]", "result": 0, "unit": "%"},
      {"measurement": "inhibition at 1 µM", "setting": "[6]", "result": 0, "unit": "%"},
      {"measurement": "inhibition at 1 µM", "setting": "[7]", "result": 6, "unit": "%"},
      {"measurement": "inhibition at 1 µM", "setting": "[8]", "result": 37, "unit": "%"},
      {"measurement": "inhibition at 1 µM", "setting": "[9]", "result": 0, "unit": "%"},
      {"measurement": "inhibition at 1 µM", "setting": "[10]", "result": 0, "unit": "%"},
      {"measurement": "inhibition at 1 µM", "setting": "[11]", "result": 14, "unit": "%"},
      {"measurement": "inhibition at 1 µM", "setting": "[12]", "result": 3, "unit": "%"},
      {"measurement": "inhibition at 1 µM", "setting": "[13]", "result": 0, "unit": "%"},
      {"measurement": "inhibition at 1 µM", "setting": "[14]", "result": 0, "unit": "%"},
      {"measurement": "inhibition at 1 µM", "setting": "[15]", "result": 0, "unit": "%"},
      {"measurement": "inhibition at 1 µM", "setting": "[16]", "result": 4, "unit": "%"},
      {"measurement": "inhibition at 1 µM", "setting": "[17]", "result": 12, "unit": "%"},
      {"measurement": "inhibition at 1 µM", "setting": "[18]", "result": 12, "unit": "%"},
      {"measurement": "inhibition at 1 µM", "setting": "[19]", "result": 0, "unit": "%"},
      {"measurement": "inhibition at 1 µM", "setting": "[20]", "result": 0, "unit": "%"},
      {"measurement": "inhibition at 1 µM", "setting": "[21]", "result": 23, "unit": "%"},
      {"measurement": "inhibition at 1 µM", "setting": "[22]", "result": 22, "unit": "%"},
      {"measurement": "inhibition at 1 µM", "setting": "[23]", "result": 39, "unit": "%"},
      {"measurement": "inhibition at 1 µM", "setting": "[24]", "result": 8, "unit": "%"}
    ]}
  ]
}
